The assay relates to MMP13 expression in SW1353 chondrosarcoma cell line. Description: MMP13 assay: IL-1/OSM-driven MMP13 expression in SW1353 cells (MMP13 ELISA). It is filed as cell-based. Conditions: Homo sapiens, IL-1β and OSM, 48 hr. How it is done:
The protocol of the MMP13 ELISA is described in section 4.1, then testing of compounds on release of IL-1/OSM-driven MMP13 expression in SW1353 chondrosarcoma cell line is described in section 4.2.
A 384 well format ELISA for measurement of MMP13 was developed. Various primary antibodies were tested, as well as various ELISA protocols. The following protocol is developed and validated to measure MMP13 levels in supernatant of cell cultures in 384 well plates.
Black maxisorb 384 well plates (Nunc 460518) are coated with 35 μl of a buffered solution containing 1.5 μg/mL anti-MMP13 antibody MAB511 (R&D systems). The antibody is diluted in carbonate-bicarbonate coating buffer (1.59 g Na2CO3 (Sigma S-7795) and 2.93 g NaHCO3 (Sigma S-5761) in 1 L MilliQ water, adjusted to pH 9.6). After overnight incubation at 4° C., wells are washed twice with 100 μL PBST (80 g NaCl, 2 g KCl (Sigma), 11.5 g Na2HPO4.7H2O and 2 g KH2PO4 in 10 L milliQ water; pH 7.4+0.05% Tween-20 (Sigma)) and blocked with 100 μL/well blocking buffer (5% non fat dry milk in PBS). After overnight incubation at 4° C., wells are washed twice with 100 μL PBST. The PBST is removed and 35 μL of sample is transferred to the ELISA plates. After 4 hr incubation at RT, plates are washed twice with PBST and incubated for 1 hr at 37° C. with 35 μL/well 1.5 mM APMA solution (a 10 mM APMA stock solution is prepared one day before (35.18 mg APMA (Sigma A-9563) in 10 mL 0.1M NaOH (Merck 1.06469.1000) and stored at 4° C. Before use, the 10 mM APMA stock solution is diluted to 1.5 mM in 1×APMA buffer (10× APMA buffer: 500 mM Tris (Roche 708976), 50 mM CaCl2 (Sigma C-5080), […] ZnCl2 (Sigma Z-0173), 1.5 M NaCl (Calbiochem 567441), 0.5% Brij35 (Sigma 430 AG-6) and adjust to pH 7.0). After activation of MMP13 by APMA, plates are washed again two times with 100 μL PBST/well and 35 μL of substrate solution is added to each well. Substrate solution is prepared as follows: OmniMMP Fluorescent substrate (Biomol P-126) stock solution (2 mM in DMSO, stored at −20° C.) is diluted in 1× OmniMMP buffer (10× OmniMMP buffer: 500 mM Hepes (Sigma H4034), 100 mM CaCl2 (Sigma C5080), 0.5% Brij35 (Sigma 430 AG-6; adjusted to pH 7.0) to a final concentration of 0.01 mM. After an overnight incubation at 37° C., the active MMP13 in the sample has cleaved the substrate and released fluorescence. Readout is performed on the EnVision (Perkin Elmer) using 320 nm excitation/405 nm emission filters.
Human chondrosarcoma cell line SW1353 was acquired from ATCC and grown in DMEM supplemented with 10% heat-inactivated FBS and 1× penicillin/streptomycin (Invitrogen) in a humidified 5% CO2 incubator at 37° C. Aliquots of the cells were frozen and cryopreserved in liquid nitrogen. Starting from a cryopreserved aliquot, cells are further grown by sub-culturing at a 1/5-1/8 ratio twice a week by trypsinisation.
Starting from the compound master stocks (all at 10 mM concentration in 100% DMSO) a 3-fold serial dilution is made in 96-well plates in 100% DMSO. Then, plates are futher diluted 50-fold in M199 medium supplemented with 1% heat-inactivated FBS to obtain an intermediate work stock.
At day 1, SW1353 cells are seeded in 96-well plates (flat bottom, tissue culture treated, Greiner) at a density of 15000 cells/well in 120 μL growth medium. The next day, 15 μL compound out of the intermediate work stock is added. After an incubation period of 60 minutes, which allows the compounds to equilibrate and enter the cells, cells are stimulated with a mixture of IL-1β and OSM, added in a volume of 15 μL to obtain final concentrations of 1 ng/ml IL-1β and 25 ng/ml OSM. For that, stocks of IL-1 (10 μg/ml) and OSM (25 μg/ml) (both PeproTech) were diluted to 10 ng/ml and 250 ng/ml respectively, in M199 medium supplemented with 1% FBS. After incubation for 48 hr, the cell supernatant was harvested and an appropriate dilution was processed in the MMP13 ELISA as described above, delivering raw data (RFU: relative fluorescence units). […]
On the technique in general: An ELISA detects its analyte on a solid surface through an enzyme-linked reagent.

By IC50 is commonly meant the concentration that gives 50% inhibition. Lower therefore signals greater potency. As to `CC(C)N1C[C@@H]2C[C@H]1CN2c1cccc(Nc2ncc(-c3coc(C(N)=O)c3)n3ccnc23)c1` [Compound 25, 4-(8-(3-((1S,4S)-5-isopropyl-2,5-diazabicyclo[2.2.1]heptan-2-yl)phenylamino)imidazo[1,2-a]pyrazin-5-yl)furan-2-carboxamide], the half-inhibitory concentration (IC50) was above 1000 nM.
`CC(C)N1C[C@@H]2C[C@H]1CN2c1cccc(Nc2ncc(-c3ccc4c(c3)CNC4=O)n3ncnc23)c1` [Compound 26, 5-(8-(3-((1S,4S)-5-isopropyl-2,5-diazabicyclo[2.2.1]heptan-2-yl)phenylamino)-[1,2,4]triazolo[1,5-a]pyrazin-5-yl)isoindolin-1-one]: the 50% inhibitory concentration (IC50) is above 1000 nM.

The values are drawn from patent US8012983B2, “Substituted triazolopyrazines useful for the treatment of degenerative and inflammatory diseases” (Galapagos NV, priority 2008, dated 2011).
